Measured values from PMC8910920 (International Journal of Molecular Sciences, 2022).
In brackets after ≈: the same amount, converted by molar mass.

Key:
[1] = Aqueous solubility in simulated gastric fluid; format: physicochemical; conditions: simulated gastric conditions (pH < 5.5)
Method: These studies were subcontracted to Eurofins-CEREP or Eurofins-PANLABS. Briefly, agonists and antagonist assays were performed in cell cultures overexpressing the corresponding channel (CHO: TRPV1 and TRPA1; HEK293: TRPV3 and ASIC3). In vitro pharmacology, cellular channel functional assays: the compound was prepared in assay buffer to the final concentration, 10 μM. The compound wells, reference agonist and background vehicle controls were prepared in DMSO at 0.3%. The reference agonist for each Ion Channel assayed was prepared in a similar manner to serve as the assay control. […] The agonist assay was conducted on fluorimeter instruments where the test compound, vehicle controls, and reference agonist were added to the assay plate after a fluorescence baseline was established. […] For the antagonist assay, the compound was pre-incubated for five minutes at room temperature, and then challenged with the EC80 concentration of the reference agonist after establishment of a fluorescence baseline. […] Binding assay results are expressed as a percent of control specific binding. […] Aqueous solubility (μM) was determined by comparing the peak area of the principal peak in a calibration standard (200 μM) containing organic solvent (methanol/water, 60/40, v/v) with the peak area of the corresponding peak in a buffer sample. […] The amount of compound in organic phase was calculated by subtraction. […]

DRG sensory neurons = assay: Current-clamp, membrane resting potential of DRG sensory neurons; format: cell-based, rat; conditions: 10 μM
Method: In order to test if compound RGM8-51 could affect the membrane resting potential (MRP) of DRG sensory neurons, we also measured MRP of sensory neurons in the current-clamp mode of patch-clamp.
Changes in membrane potential were studied in neonatal DRGs isolated from 3–5 days-old Wistar rats. After isolation, DRGs were digested first using collagenase type IA (0.25% w/v) in DMEM GlutaMax with penicillin/streptomycin (P/S) solution (1% v/v) for 1 h (37 °C, 5% CO2, ThermoScientific incubator) and secondly by mechanical dissociation. Single cell suspension was passed through a […] cell strainer and washed with DMEM GlutaMax with FBS (10%v/v) and P/S solution (1% v/v). […]
For current-clamp recordings from rat DRG neurons the intracellular pipette solution contained (in mM): 4 NaCl, 126 K gluconate, 0.02 CaCl2, 1 MgSO4, 5 HEPES, 15 glucose, 3 ATP, 0.1 GTP and 5 EGTA, pH 7.2 with KOH and the extracellular solution contained (in mM): 140 NaCl, 4 KCl, 2 CaCl2, 2 MgCl2, 10 HEPES, 5 glucose and 20 mannitol, pH 7.4 with NaOH. The membrane potential was measured in the absence and the presence of compound RGM8-51 at 10 μM in a time interval of 1 min.
Data analysis: For the whole-cell patch-clamp experiments, results are expressed as the percentage of remaining activation of the TRPM8 channel. […] All data are expressed as the mean ± standard error of the mean (SEM) (n = 5–8). […]

In the case of `C[C@@H]1C(=O)N(C[C@H](Cc2ccccc2)N(Cc2ccccc2)Cc2ccccc2)[C@]1(Cc1ccccc1)C(=O)OC(C)(C)C` [RGM8-51, 4(S)-Benzyl-3S-methyl-4-(tert-butoxy)carbonyl-1-[(2′S-dibenzylamino-3′-phenyl)prop-1′-yl]-2-oxoazetidine], the solubility [1] is reported as 198 µM (≈ 117 µg/mL) and the “effect on membrane resting potential (MRP)” value (DRG sensory neurons) is reported as “did not alter the MRP”.
